Measured values published in patent publication US10738093B2, “Discovery of cationic nonribosomal peptides as Gram-negative antibiotics through global genome mining” (The Hong Kong University of Science and Technology, priority 2018, dated 2020).
≈ marks a conversion by molar mass, not a printed value. Positions of bridges follow the written chain, without caps; N, C: chain ends. Non-standard residues stand in square brackets, D forms with d. Residues, ends and D or L forms follow the SMILES beside them. *: point of attachment. Octanoyl(7-Me) = CC(C)CCCCCC(=O)*; aThr = C[C@H](O)[C@H](N)C(=O)O; dOrn = NCCC[C@@H](N)C(=O)O; Orn = NCCC[C@H](N)C(=O)O

Columns and labels:
[1] = test system: Escherichia coli ATCC 25922; assay: microbe, parasite or virus in culture; format: cell-based; details: ATCC 25922
Description: (§1) Minimum inhibitory concentration (MIC) was determined by broth microdilution according to CLSI guidelines. The test medium for most species was Mueller-Hinton broth (MHB). Bacteria were grown overnight to early stationary phase and adjusted in MHB to 5.0×10^5 colony-forming units per mL (c.f.u./mL) in the wells of 96-well microtiter plates, mixed with varying concentrations of test compounds and incubated at 37° C. for 24 h. […] MHBs containing 10% fetal bovine serum (Gibco), 21 mM MgCl, or 1.0 mg/ml LPS (lipopolysaccharides from Escherichia coli O55:B5, Sigma-Aldrich) were used to test their inhibitory effects.

[2] = test system: Colistin-resistant E. coli (E. coli ATCC 25922 carrying mcr-1); format: cell-based, Escherichia coli
Description: as §1

E. coli Top10 [3] = format: cell-based, Escherichia coli; details: Top10
Description: as §1

Acinetobacter baumannii = format: cell-based
Description: as §1

Bacillus subtilis 168 = format: cell-based; details: 168
Description: as §1

Candida albicans = format: cell-based
Description: as §1

[4] = test system: Enterobacter cloacae NRRL-B-413; format: cell-based; details: NRRL-B-413
Description: as §1

[5] = test system: Klebsiella pneumoniae NRRL-B-408; format: cell-based; details: NRRL-B-408
Description: as §1

[6] = test system: Methicillin-resistant Staphylococcus aureus ATCC 43300; format: cell-based
Description: as §1

[7] = test system: Pseudomonas aeruginosa PAO1; format: cell-based; details: PAO1
Description: as §1

[8] = test system: K. pneumoniae NRRL-B-3521; format: cell-based, Klebsiella pneumoniae; details: NRRL-B-3521
Description: as §1

E. cloacae NRRL-B-425 = format: cell-based, Enterobacter cloacae; details: NRRL-B-425
Description: as §1

[9] = test system: Saccharomyces cerevisiae VL-48; assay: MIC, Saccharomyces cerevisiae; format: cell-based
Description: as §1

E. coli Top10 [10] = assay: Time-kill assay; format: cell-based, Escherichia coli
Description: An overnight culture of E. coli Top10 or Pseudomonas aeruginosa PAO1 cells was diluted 1:10,000 in MHB and incubated at 37° C. with agitation at 180 rpm for 2 h (early exponential). The bacteria were then challenged with antibiotics at 10×MIC, brevicidine (20 μg/ml), laterocidine (20 μg/ml) or polymyxin B (10 μg/ml) at room temperature without shaking. An untreated sample of cells was used as a negative control. At intervals, 10 μL aliquots were removed, centrifuged at 10,000 g for 1 min and resuspended in 1.0 mL of sterile PBS. Tenfold-serially-diluted suspensions were plated on MHB agar plates and incubated at 37° C. overnight. Colonies were counted and the number of c.fu. per mL was calculated. For analysis of lysis, 300 μL of culture (OD600=1.0) were treated with 10×MIC of antibiotics for 24 h. Experiments were performed in triplicate.

E. coli Top10 [11] = assay: Bacterial growth kinetics; format: cell-based, Escherichia coli; details: E. coli cells exposed to compound
Description: A fresh single colony of E. coli Top10 was inoculated into MHB (5 mL) and grown with shaking at 225 rpm overnight. The bacteria were diluted to 1×10^5 c.f.u./mL in fresh MHB, grown […] to early log-phase (OD=0.15) and treated with the antibiotics of interest in the wells of a 96-well plate. Final antibiotic concentrations varied from 1×MIC to 8×MIC. The plate was then incubated at 30° C. overnight, with OD 600 measurements taken every 30 seconds.

[12] = test system: Escherichia coli ATCC 25922; assay: Resistance acquisition during serial passaging; format: cell-based; details: serial passaging at subinhibitory concentrations over 30 days
Description: Escherichia coli ATCC 25922 was inoculated into MHB overnight at 37° C. with continuous shaking. Cells were diluted 10,000 times in MHB to about 1×10^6 c.f.u./mL. […] Plates with bacteria were incubated at 37° C. without shaking. […] This process was repeated for 30 d, and the final MIC was confirmed by the same antibacterial assay described above. The experiment was performed in quadruplicate, and on each day, the sample that developed the highest resistance was measured to plot the curve.

E. coli ATCC 25922 [13] = assay: Atomic force microscopy of treated E. coli; format: cell-based, Escherichia coli; details: E. coli ATCC25922, 10×MIC
Description: (§2) The samples were then centrifuged at 8000 g for 10 min at 4° C., and the pellet was washed twice in 100 lpL of apyrogenic water. The bacteria resuspended in 50 μL of apyrogenic water were applied to mica disks and dried overnight at 28° C. before imaging. Atomic force micrographs were recorded on a Veeco Mulitmode AFM with NanoScope III controller operating in contact mode. The data were analyzed with NanoScope Analysis software v.1.40 (Veeco, USA). Scans were acquired at 25° C. at the rates of 1.0 Hz and 256 samples per line resolution. Downstream image processing and analysis were performed using NanoScope software (Bruker). Height images were flattened to compensate for cell curvature, and topographical sections were used to generate two-dimensional reconstructions of surface texture.

P. aeruginosa PAO1 = assay: Atomic force microscopy of treated P. aeruginosa; format: cell-based, Pseudomonas aeruginosa
Description: as §2

E. coli ATCC 25922 [14] = assay: Neutropenic mouse thigh infection model; format: in vivo, Escherichia coli; details: brevicidine 30 mg/kg or laterocidine 15 mg/kg, 2 times, after 26 h
Description: In vivo activities of brevicidine and laterocidine were tested using the mouse thigh infection model. Animal studies were performed by Pharmacology Discovery Services Taiwan Ltd. (Taipei, Taiwan) in general accordance with standard guidelines on animal welfare in an AAALAC-accredited facility. The protocol was reviewed and approved by the Institutional Animal Care and Use Committee. Groups of five female specific-pathogen-free ICR (CD-1) mice weighing 22±2 g (˜5 weeks of age) were used. Animals were immunosuppressed with two intraperitoneal injections of cyclophosphamide, the first at 150 mg/kg 4 d before infection (day −4) and the second at 100 mg/kg 1 d before infection (day −1). On day 0, animals were inoculated intramuscularly (0.1 ml/thigh) in the right thigh with an E. coli ATCC 25922 suspension. Vehicle (10% DMSO, 1% Tween 80, 0.9% NaCl) and antibiotics were then subcutaneously injected 2 h and 8 h later. Due to limited amount of compounds 1-2, only one concentration of 1(30 mg/kg) or 2 (15 mg/kg) was used in this study. At 26 h after inoculation, animals were euthanized by CO2 asphyxiation before the muscle of the right thigh was harvested from each test animal. The removed muscle was homogenized in 5 mL of PBS, pH 7.4, with a polytron homogenizer. Homogenates in the amount of 0.1 mL were used for serial tenfold dilutions and plated onto a nutrient agar medium for colony count (c.f.u./g) determination.

## CC[C@H](C)[C@@H]1NC(=O)[C@@H](NC(=O)[C@H](Cc2c[nH]c3ccccc23)NC(=O)[C@@H](CCCN)NC(=O)CNC(=O)[C@H](CCCN)NC(=O)[C@@H](CCCN)NC(=O)[C@@H](Cc2c[nH]c3ccccc23)NC(=O)[C@@H](Cc2ccc(O)cc2)NC(=O)[C@@H](CO)NC(=O)CCCCCC(C)C)[C@H](C)OC(=O)CNC(=O)CNC(=O)[C@H](CC(N)=O)NC1=O [Compound 2, 7-Methyl-Octanoyl-D-Ser-D-Tyr-D-Trp-D-Orn-Orn-Gly-D-Orn-Trp-Thr-Ile-Asn-Gly-Gly (cyclized via lactone formation between Thr and the C-terminus)] ({Octanoyl(7-Me)}-[dS][dY][dW][dOrn][Orn]G[dOrn]W[aThr]INGG; ester 9-C)
[1]
  MIC: 2 µg/mL (≈ 1.25 µM)
  MIC Ec: 2 µg/mL (≈ 1.25 µM)
[2]
  MIC: 2 µg/mL (≈ 1.25 µM)
E. coli Top10 [3]
  MIC: 2 µg/mL (≈ 1.25 µM)
Acinetobacter baumannii
  MIC: 4 µg/mL (≈ 2.49 µM)
  MIC Ab: 4 µg/mL (≈ 2.49 µM)
Bacillus subtilis 168
  MIC: 32 µg/mL (≈ 19.9 µM)
  MIC Bs: 32 µg/mL (≈ 19.9 µM)
Candida albicans
  MIC: >64 µg/mL
Candida albicans; Table 2, Candida albicans
  MIC Ca: ND (ND >64 μg/ml)
[4]
  MIC: 2 µg/mL (≈ 1.25 µM)
  MIC En: 2 µg/mL (≈ 1.25 µM)
[5]
  MIC: 4 µg/mL (≈ 2.49 µM)
[6]; ATCC 43300
  MIC: >64 µg/mL
[6]; Table 2, Methicillin-resistant Staphylococcus aureus ATCC 43300
  MIC MRSA: ND (ND >64 μg/ml)
[7]
  MIC: 2 µg/mL (≈ 1.25 µM)
  MIC Pa: 2 µg/mL (≈ 1.25 µM)
[8]
  MIC: 4 µg/mL (≈ 2.49 µM)
E. cloacae NRRL-B-425
  MIC: 3 µg/mL (≈ 1.87 µM)
[9]; Saccharomyces cerevisiae
  MIC: >64 µg/mL
[9]; Table 2, Saccharomyces cerevisiae VL-48
  MIC Sc: ND (ND >64 μg/ml)
E. coli Top10 [10]; 10 times the MIC
  time of exposure to significant reduction of viable cells: 30 min
  time of exposure to slightly reduced cell viability: 15 min
E. coli Top10 [10]; growth kinetics, time-kill assay and lysis assay
  bactericidal against E. coli: bactericidal
E. coli Top10 [11]
  time of growth at a reduced rate before steady decrease in cell count: 30 min
[12]
  development of resistance: development of resistance was not observed
E. coli ATCC 25922 [13]
  cell morphology by AFM: lost their regular rod-like shape and became lumpy and rugged
P. aeruginosa PAO1
  cell morphology by AFM: lost their regular rod-like shape and became lumpy and rugged
E. coli ATCC 25922 [14]
  bactericidal efficacy in mouse thigh infection (viable bacteria): reduced numbers of viable bacteria
